Results: ChEMBL document CHEMBL1153670 (Bioorg Med Chem Lett, 1995)

Assays:
HCT-116 [1] = assay: Potency relative to paclitaxel in a tubulin polymerization assay in HCT116 cell line; type: functional, Homo sapiens
HCT-116 [2] = assay: In vitro cytotoxicity was determined by inhibition against HCT116 cell line proliferation after 72 hours of incubation; type: cell-based; conditions: Homo sapiens, HCT-116, 72 h
M109 [3] = assay: In vivo cytotoxicity of intraperitoneally administered compound at dose 50 mgkg/inj was determined against ip implanted murine M-109 lung carcinoma; type: organism-based; design: dose mgkg, route intraperitoneal; conditions: mouse
HCT-116 [4] = assay: cells; conditions: Homo sapiens
M109 [5] = assay: In vivo cytotoxicity of intraperitoneally administered compound at dose 32 mg/kg/inj was determined against ip implanted murine M-109 lung carcinoma; type: organism-based; design: route intraperitoneal; conditions: mouse
M109 [6] = assay: In vivo cytotoxicity of intraperitoneally administered compound at dose 1.6 mg/kg/inj was determined against ip implanted murine M-109 lung carcinoma; type: organism-based; design: route intraperitoneal; conditions: mouse
M109 [7] = assay: In vivo cytotoxicity of intraperitoneally administered compound at dose 16 mg/kg/inj was determined against ip implanted murine M-109 lung carcinoma; type: organism-based; design: route intraperitoneal; conditions: mouse
M109 [8] = assay: In vivo cytotoxicity of intraperitoneally administered compound at dose 25 mgkg/inj was determined against ip implanted murine M-109 lung carcinoma; type: organism-based; design: dose mgkg, route intraperitoneal; conditions: mouse
M109 [9] = assay: In vivo cytotoxicity of intraperitoneally administered compound at dose 3 mg/kg/inj was determined against ip implanted murine M-109 lung carcinoma; type: organism-based; design: route intraperitoneal; conditions: mouse

## COC(=O)O[C@@]12CO[C@@H]1C[C@H](O)[C@@]1(C)C(=O)[C@H](OC(C)=O)C3=C(C)[C@@H](OC(=O)[C@H](O)C(NC(=O)c4ccccc4)c4ccccc4)C[C@@](O)([C@@H](OC(=O)c4ccccc4)C12)C3(C)C (some centres undefined)
HCT-116 [1]
  Tubulin polymerization ratio: 0.41
HCT-116 [2]
  IC50: 2000 pM
M109 [3]
  T/C: 161%
HCT-116 [4]
  IC50: 500 pM

## COC(=O)O[C@@]12CO[C@@H]1C[C@H](O)[C@@]1(C)C(=O)[C@H](OC(C)=O)C3=C(C)[C@@H](OC(=O)[C@H](O)C(NC(=O)OC(C)(C)C)c4ccco4)C[C@@](O)([C@@H](OC(=O)c4ccccc4)C12)C3(C)C (some centres undefined)
HCT-116 [1]
  Tubulin polymerization ratio: 0.66
HCT-116 [2]
  IC50: 1600 pM
M109 [5]
  T/C: 183%
HCT-116 [4]
  IC50: 400 pM

## CC(=O)O[C@H]1C(=O)[C@@]2(C)C([C@H](OC(=O)c3ccccc3)[C@]3(O)C[C@H](OC(=O)[C@H](O)C(NC(=O)OC(C)(C)C)c4ccccc4)C(C)=C1C3(C)C)[C@]1(OC(=O)C3CC3)CO[C@@H]1C[C@@H]2O (some centres undefined)
HCT-116 [1]
  Tubulin polymerization ratio: 0.22
HCT-116 [2]
  IC50: 800 pM
M109 [6]
  T/C: 115%
HCT-116 [4]
  IC50: 200 pM

## CC(=O)O[C@H]1C(=O)[C@@]2(C)C([C@H](OC(=O)c3ccccc3)[C@]3(O)C[C@H](OC(=O)[C@H](O)C(NC(=O)c4ccccc4)c4ccco4)C(C)=C1C3(C)C)[C@]1(OC(=O)C3CCC3)CO[C@@H]1C[C@@H]2O (some centres undefined)
HCT-116 [1]
  Tubulin polymerization ratio: 0.29
HCT-116 [2]
  IC50: 1600 pM
M109 [7]
  T/C: 188 mg kg-1 injection-1
HCT-116 [4]
  IC50: 400 pM

## CCCC(=O)O[C@@]12CO[C@@H]1C[C@H](O)[C@@]1(C)C(=O)[C@H](OC(C)=O)C3=C(C)[C@@H](OC(=O)[C@H](O)C(NC(=O)c4ccccc4)c4ccccc4)C[C@@](O)([C@@H](OC(=O)c4ccccc4)C12)C3(C)C (some centres undefined)
HCT-116 [1]
  Tubulin polymerization ratio: 0.61
HCT-116 [2]
  IC50: 1100 pM
M109 [8]
  T/C: 164 mg kg-1 injection-1
HCT-116 [4]
  IC50: 250 pM

## CC(=O)O[C@H]1C(=O)[C@@]2(C)C([C@H](OC(=O)c3ccccc3)[C@]3(O)C[C@H](OC(=O)[C@H](O)C(NC(=O)c4ccccc4)c4ccco4)C(C)=C1C3(C)C)[C@]1(OC(=O)C3CC3)CO[C@@H]1C[C@@H]2O (some centres undefined)
HCT-116 [1]
  Tubulin polymerization ratio: 0.33
HCT-116 [2]
  IC50: 900 pM
M109 [9]
  T/C: 132 mg kg-1 injection-1
HCT-116 [4]
  IC50: 220 pM
